Measurements published in patent publication US8471005B2 (Cephalon, Inc., priority 2008, dated 2013).
Like-named read-outs stand apart in the source and are kept apart here.

How the values were obtained:
ALK = biological target: T1, ALK (Homo sapiens, UniProt Q9UM73); experiment: ALK Kinase Assay (ELISA/TRF, PLC-γ substrate); type: biochemical; conditions: read-out: ALK Potency
T1 construct: host or cells: baculovirus expression system
Outline: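 Time-resolved fluorescence ELISA using Eu-N1 PT66 antibody to detect phosphorylated PLC-γ (coated at 10 μg/mL). Enzyme at 30 ng/ml ALK; 15 min incubation, 37° C.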

JAK2 = biological target: T2, JAK2 (Homo sapiens, UniProt O60674); experiment: Recombinant Human JAK2 Kinase Assay (TRF); type: biochemical; conditions: read-out: JAK2 Potency
T2 construct: host or cells: baculovirus expression system
T2 sequence (O60674 whole entry): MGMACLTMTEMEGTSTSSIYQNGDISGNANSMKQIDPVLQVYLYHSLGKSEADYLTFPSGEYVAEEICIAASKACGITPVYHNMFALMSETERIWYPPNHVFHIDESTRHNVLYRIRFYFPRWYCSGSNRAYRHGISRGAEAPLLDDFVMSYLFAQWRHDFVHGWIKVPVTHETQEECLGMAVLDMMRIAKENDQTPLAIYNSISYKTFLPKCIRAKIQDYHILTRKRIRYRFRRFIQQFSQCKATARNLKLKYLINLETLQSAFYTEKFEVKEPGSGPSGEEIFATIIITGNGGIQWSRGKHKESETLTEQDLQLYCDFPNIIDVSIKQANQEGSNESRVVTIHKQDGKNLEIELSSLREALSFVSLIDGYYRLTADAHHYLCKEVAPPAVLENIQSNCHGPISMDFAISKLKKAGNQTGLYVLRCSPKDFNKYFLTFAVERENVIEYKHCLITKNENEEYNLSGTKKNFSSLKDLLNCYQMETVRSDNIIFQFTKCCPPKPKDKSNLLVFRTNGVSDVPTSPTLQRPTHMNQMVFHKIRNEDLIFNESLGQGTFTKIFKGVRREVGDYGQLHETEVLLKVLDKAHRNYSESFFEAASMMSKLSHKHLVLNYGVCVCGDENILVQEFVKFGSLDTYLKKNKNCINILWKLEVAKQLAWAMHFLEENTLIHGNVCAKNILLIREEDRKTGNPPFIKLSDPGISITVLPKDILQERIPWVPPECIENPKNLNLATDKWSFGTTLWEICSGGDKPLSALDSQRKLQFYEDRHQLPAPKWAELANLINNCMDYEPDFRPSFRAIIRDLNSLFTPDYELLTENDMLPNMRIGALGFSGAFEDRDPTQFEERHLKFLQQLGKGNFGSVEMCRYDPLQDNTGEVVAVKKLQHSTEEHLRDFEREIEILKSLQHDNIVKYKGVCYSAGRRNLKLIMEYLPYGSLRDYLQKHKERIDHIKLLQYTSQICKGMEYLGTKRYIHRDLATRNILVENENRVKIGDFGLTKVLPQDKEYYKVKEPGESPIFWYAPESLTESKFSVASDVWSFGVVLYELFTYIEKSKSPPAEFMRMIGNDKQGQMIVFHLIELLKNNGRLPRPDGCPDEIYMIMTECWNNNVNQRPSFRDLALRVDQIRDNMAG
Outline: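 Baculovirus-expressed JAK2 (15 ng/ml) phosphorylated a biotinylated 15-mer peptide captured on Neutravidin-coated plates, in 20 mM HEPES pH 7.2 with 0.2 μM ATP, 1 mM MnCl2, 0.1% BSA and 2.5% DMSO. Reaction ran 20 min at room temperature; phosphopeptide was detected by time-resolved fluorescence with Eu-N1-labelled PY100 antibody.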

[1] = ALK kinase inhibition, 1 μM ATP
[2] = JAK2 kinase inhibition, 0.2 μM ATP

T1 sequence (Q9UM73 19-1620): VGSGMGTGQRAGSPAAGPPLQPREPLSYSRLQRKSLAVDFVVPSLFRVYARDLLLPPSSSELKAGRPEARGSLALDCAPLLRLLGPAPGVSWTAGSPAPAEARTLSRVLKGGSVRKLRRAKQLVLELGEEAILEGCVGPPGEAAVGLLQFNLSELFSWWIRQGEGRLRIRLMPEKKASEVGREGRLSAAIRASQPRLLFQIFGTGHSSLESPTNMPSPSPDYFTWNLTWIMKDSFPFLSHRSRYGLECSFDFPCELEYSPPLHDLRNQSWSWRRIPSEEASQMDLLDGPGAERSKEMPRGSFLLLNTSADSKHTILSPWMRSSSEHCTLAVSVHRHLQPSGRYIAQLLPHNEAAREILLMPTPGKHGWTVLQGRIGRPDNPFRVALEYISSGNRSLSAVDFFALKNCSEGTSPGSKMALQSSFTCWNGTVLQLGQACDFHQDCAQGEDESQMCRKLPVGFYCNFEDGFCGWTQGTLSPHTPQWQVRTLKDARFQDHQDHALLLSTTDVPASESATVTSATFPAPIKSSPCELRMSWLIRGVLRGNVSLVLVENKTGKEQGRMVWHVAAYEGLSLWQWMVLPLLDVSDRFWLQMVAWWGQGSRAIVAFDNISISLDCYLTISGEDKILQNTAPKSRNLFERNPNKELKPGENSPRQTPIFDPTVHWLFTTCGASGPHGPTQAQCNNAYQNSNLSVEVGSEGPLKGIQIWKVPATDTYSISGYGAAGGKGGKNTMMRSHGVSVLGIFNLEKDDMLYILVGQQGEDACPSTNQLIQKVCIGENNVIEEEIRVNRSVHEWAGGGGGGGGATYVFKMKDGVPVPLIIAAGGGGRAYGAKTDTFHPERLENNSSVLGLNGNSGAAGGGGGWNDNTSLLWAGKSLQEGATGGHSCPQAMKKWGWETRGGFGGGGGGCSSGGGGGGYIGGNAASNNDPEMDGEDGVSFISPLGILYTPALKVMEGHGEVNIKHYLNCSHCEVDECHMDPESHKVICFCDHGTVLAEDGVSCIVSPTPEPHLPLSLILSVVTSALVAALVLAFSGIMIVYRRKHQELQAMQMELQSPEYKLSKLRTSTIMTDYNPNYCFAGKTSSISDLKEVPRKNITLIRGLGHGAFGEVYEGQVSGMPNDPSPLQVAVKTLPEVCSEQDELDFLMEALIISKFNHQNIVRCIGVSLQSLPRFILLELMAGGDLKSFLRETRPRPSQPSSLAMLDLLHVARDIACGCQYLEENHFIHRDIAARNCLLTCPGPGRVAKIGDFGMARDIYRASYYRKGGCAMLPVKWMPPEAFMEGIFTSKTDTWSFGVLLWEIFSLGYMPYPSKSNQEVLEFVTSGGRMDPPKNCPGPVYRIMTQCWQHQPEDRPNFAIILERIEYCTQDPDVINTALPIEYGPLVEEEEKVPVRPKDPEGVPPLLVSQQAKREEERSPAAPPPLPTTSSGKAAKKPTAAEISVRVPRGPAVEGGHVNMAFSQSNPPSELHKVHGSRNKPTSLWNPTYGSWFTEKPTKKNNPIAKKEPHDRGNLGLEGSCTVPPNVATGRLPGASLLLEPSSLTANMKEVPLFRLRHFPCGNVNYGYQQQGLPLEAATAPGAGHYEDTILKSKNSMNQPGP

SMILES | IC50 (ALK; ALK Kinase Inhibition) | IC50 (JAK2; JAK2 Kinase Inhibition) | IC50 (ALK; [1]) | IC50 (JAK2; [2])
COc1ccc(-c2ccc3cnc(Nc4ccc5nc(CN6CCN(CCO)CC6)[nH]c5c4)nn23)cn1 [Example 1523, 2-(4-{6-[7-(6-Methoxy-pyridin-3-yl)-pyrrolo[2,1-f][1,2,4]triazin-2-ylamino]-1H-benzimidazol-2-ylmethyl}-piperazin-1-yl)-ethanol] | 1000 to 10000 nM | < 100 nM |  | 
CC(C)(O)CN1CCN(c2cccc(Nc3ncc4ccc(-c5cccc(Cl)c5)n4n3)c2)CC1 [Example 220, 1-(4-{3-[7-(3-Chloro-phenyl)-pyrrolo[2,1-f][1,2,4]triazin-2-ylamino]-phenyl}-piperazin-1-yl)-2-methyl-propan-2-ol] | 100 to 1000 nM | < 100 nM |  | 
Cn1cc(-c2ccc3cnc(Nc4cccc(N5CCOCC5)c4)nn23)cn1 [Example 198, [7-(1-Methyl-1H-pyrazol-4-yl)-pyrrolo[2,1-f][1,2,4]triazin-2-yl]-(3-morpholin-4-yl-phenyl)-amine] | 100 to 1000 nM | < 100 nM |  | 
COc1ccccc1-c1ccc2cnc(Nc3ccn(CC(=O)N4CCOCC4)n3)nn12 [Example 1111, 2-{3-[7-(2-Methoxy-phenyl)-pyrrolo[2,1-f][1,2,4]triazin-2-ylamino]-pyrazol-1-yl}-1-morpholin-4-yl-ethanone] |  |  | 100 to 1000 nM | < 100 nM
COc1cc(N2CCC(N3CCOCC3)CC2)ccc1Nc1ncc2ccc(-c3cccnc3)n2n1 [Example 1170, [2-Methoxy-4-(4-morpholin-4-yl-piperidin-1-yl)-phenyl]-(7-pyridin-3-yl-pyrrolo[2,1-f][1,2,4]triazin-2-yl)-amine] |  |  | 100 to 1000 nM | < 100 nM
CN1CCC(c2ccc(Nc3ncc4ccc(-c5ccn(C)n5)n4n3)cc2)CC1 [Example 954, [4-(1-Methyl-piperidin-4-yl)-phenyl]-[7-(1-methyl-1H-pyrazol-3-yl)-pyrrolo[2,1-f][1,2,4]triazin-2-yl]-amine] |  |  | 100 to 1000 nM | < 100 nM
COc1ccccc1-c1ccn2nc(Nc3ccc4c(c3)CN(C)CC4)ncc12 [Example 722, [5-(2-Methoxy-phenyl)-pyrrolo[2,1-f][1,2,4]triazin-2-yl]-(2-methyl-1,2,3,4-tetrahydro-isoquinolin-7-yl)-amine] |  |  | > 10000 nM | 1000 to 10000 nM
O=C(c1ccc(-c2ccc3cnc(Nc4ccc(N5CCOCC5)cc4)nn23)cc1)N1CCOCC1 [Example 14, Morpholin-4-yl-{4-[2-(4-morpholin-4-yl-phenylamino)-pyrrolo[2,1-f][1,2,4]triazin-7-yl]-phenyl}-methanone] | 100 to 1000 nM | < 100 nM |  | 
COc1cc(C2CCN(C[C@@H](C)O)CC2)ccc1Nc1ncc2ccc(-c3cc(Cl)ccc3OC)n2n1 [Example 794, (R)-1-(4-{4-[7-(5-Chloro-2-methoxy-phenyl)-pyrrolo[2,1-f][1,2,4]triazin-2-ylamino]-3-methoxy-phenyl}-piperidin-1-yl)-propan-2-ol] |  |  | < 100 nM | 100 to 1000 nM
COc1ccc(Cl)cc1-c1ccc2cnc(Nc3ccc(N4CCC(N5CCN(C)CC5)CC4)cc3)nn12 [Example 311, [7-(5-Chloro-2-methoxy-phenyl)-pyrrolo[2,1-f][1,2,4]triazin-2-yl]-{4-[4-(4-methyl-piperazin-1-yl)-piperidin-1-yl]-phenyl}-amine] | < 100 nM | < 100 nM |  | 
COc1ccccc1-c1ccc2cnc(Nc3ccc4c(c3)N3CCC4CC3)nn12 [Example 764, (3,4-Dihydro-2H-1,4-ethano-quinolin-7-yl)-[7-(2-methoxy-phenyl)-pyrrolo[2,1-f][1,2,4]triazin-2-yl]-amine] |  |  | < 100 nM | < 100 nM
COc1ccc(OC)c(-c2ccc3cnc(Nc4ccc(N5CCC(N6CCOCC6)CC5)cc4OC)nn23)c1 [Example 1476, [7-(2,5-Dimethoxy-phenyl)-pyrrolo[2,1-f][1,2,4]triazin-2-yl]-[2-methoxy-4-(4-morpholin-4-yl-piperidin-1-yl)-phenyl]-amine] | < 100 nM | 100 to 1000 nM |  | 
CS(=O)(=O)c1cccc(-c2ccc3cnc(Nc4ccc(C5(C#N)CCN(CC(N)=O)CC5)cc4)nn23)c1 [Example 1546, 2-(4-Cyano-4-{4-[7-(3-methanesulfonyl-phenyl)-pyrrolo[2,1-f][1,2,4]triazin-2-ylamino]-phenyl}-piperidin-1-yl)-acetamide] | 1000 to 10000 nM | < 100 nM |  | 
COc1cc(N2CCC(N3CCCN(CCO)CC3)CC2)ccc1Nc1ncc2ccc(-c3ccccc3OC)n2n1 [Example 801, 2-[4-(1-{3-Methoxy-4-[7-(2-methoxy-phenyl)-pyrrolo[2,1-f][1,2,4]triazin-2-ylamino]-phenyl}-piperidin-4-yl)-[1,4]diazepan-1-yl]-ethanol] |  |  | < 100 nM | < 100 nM

Next, values leading:

IC50 (ALK; ALK Kinase Inhibition) | IC50 (JAK2; JAK2 Kinase Inhibition) | IC50 (ALK; [1]) | IC50 (JAK2; [2]) | SMILES
 |  | < 100 nM | < 100 nM | CN(c1ccccc1-c1ccc2cnc(Nc3ccc(C4CN(CC(N)=O)C4)cc3)nn12)S(C)(=O)=O [Example 586, 2-[3-(4-{7-[2-(Methanesulfonyl-methyl-amino)-phenyl]-pyrrolo[2,1-f][1,2,4]triazin-2-ylamino}-phenyl)-azetidin-1-yl]-acetamide]
< 100 nM | 100 to 1000 nM |  |  | COc1cc(N2CCC[C@@H](CN3CCN(C)CC3)C2)ccc1Nc1ncc2ccc(-c3ccccc3N(C)S(C)(=O)=O)n2n1 [Example 469, N-[2-(2-{2-Methoxy-4-[(S)-3-(4-methyl-piperazin-1-ylmethyl)-piperidin-1-yl]-phenylamino}-pyrrolo[2,1-f][1,2,4]triazin-7-yl)-phenyl]-N-methyl-methanesulfonamide]
< 100 nM | < 100 nM |  |  | CN(c1ccccc1-c1ccc2cnc(Nc3ccc(C4CCN(CC(N)=O)CC4)cc3)nn12)S(C)(=O)=O [Example 1408, 2-[4-(4-{7-[2-(Methanesulfonyl-methyl-amino)-phenyl]-pyrrolo[2,1-f][1,2,4]triazin-2-ylamino}-phenyl)-piperidin-1-yl]-acetamide]
1000 to 10000 nM | < 100 nM |  |  | CC(C)(C)NS(=O)(=O)c1cccc(-c2ccc3cnc(Nc4ccc(-c5cnco5)cc4)nn23)c1 [Example 1402, N-tert-Butyl-3-[2-(4-oxazol-5-yl-phenylamino)-pyrrolo[2,1-f][1,2,4]triazin-7-yl]-benzenesulfonamide]
100 to 1000 nM | < 100 nM |  |  | CN1CCN(C(=O)c2ccc(Nc3ncc4ccc(-c5cccc(S(=O)(=O)NC(C)(C)C)c5)n4n3)cc2)CC1 [Example 1410, N-tert-Butyl-3-{2-[4-(4-methyl-piperazine-1-carbonyl)-phenylamino]-pyrrolo[2,1-f][1,2,4]triazin-7-yl}-benzenesulfonamide]
 |  | < 100 nM | 100 to 1000 nM | COc1cc(C2CCN(CC(O)CF)CC2)ccc1Nc1ncc2ccc(-c3ccccc3N(C)S(C)(=O)=O)n2n1 (racemic) [Example 826, (±)-N-[2-(2-{4-[1-(3-Fluoro-2-hydroxy-propyl)-piperidin-4-yl]-2-methoxy-phenylamino}-pyrrolo[2,1-f][1,2,4]triazin-7-yl)-phenyl]-N-methyl-methanesulfonamide]
 |  | < 100 nM | 100 to 1000 nM | COc1cc(N2CCC(N3CCOCC3)C2)ccc1Nc1ncc2ccc(-c3ccccc3N(C)S(C)(=O)=O)n2n1 (racemic) [Example 782, (±)-N-(2-{2-[2-Methoxy-4-(3-morpholin-4-yl-pyrrolidin-1-yl)-phenylamino]-pyrrolo[2,1-f][1,2,4]triazin-7-yl}-phenyl)-N-methyl-methanesulfonamide]
 |  | 100 to 1000 nM | < 100 nM | CN(c1ccccc1-c1ccc2cnc(Nc3ccc4c(cnn4C)c3)nn12)S(C)(=O)=O [Example 1339, N-Methyl-N-{2-[2-(1-methyl-1H-indazol-5-ylamino)-pyrrolo[2,1-f][1,2,4]triazin-7-yl]-phenyl}-methanesulfonamide]
< 100 nM | < 100 nM |  |  | COc1ccccc1-c1cc(C)c2cnc(Nc3ccc(N4CCN(C)CC4)cc3)nn12 [Example 105, [7-(2-Methoxy-phenyl)-5-methyl-pyrrolo[2,1-f][1,2,4]triazin-2-yl]-[4-(4-methyl-piperazin-1-yl)-phenyl]-amine]
< 100 nM | < 100 nM |  |  | CN1CCN(c2ccc(Nc3ncc4ccc(-c5ccccc5Cl)n4n3)cc2)CC1 [Example 25, [7-(2-Chloro-phenyl)-pyrrolo[2,1-f][1,2,4]triazin-2-yl]-[4-(4-methyl-piperazin-1-yl)-phenyl]-amine]
 |  | 100 to 1000 nM | < 100 nM | CN1CCC(c2ccc(Nc3ncc4ccc(-c5cccc(S(C)(=O)=O)c5)n4n3)cc2)CC1 [Example 1120, [7-(3-Methanesulfonyl-phenyl)-pyrrolo[2,1-f][1,2,4]triazin-2-yl]-[4-(1-methyl-piperidin-4-yl)-phenyl]-amine]
100 to 1000 nM | < 100 nM |  |  | NC(=O)CN1CCC(c2ccc(Nc3ncc4ccc(-c5ccccc5O)n4n3)cc2)CC1 [Example 1427, 2-(4-{4-[7-(2-Hydroxy-phenyl)-pyrrolo[2,1-f][1,2,4]triazin-2-ylamino]-phenyl}-piperidin-1-yl)-acetamide]
 |  | 100 to 1000 nM | < 100 nM | COc1ccccc1-c1ccc2cnc(Nc3cccc(OC4CCNCC4)c3)nn12 [Example 601, [7-(2-Methoxy-phenyl)-pyrrolo[2,1-f][1,2,4]triazin-2-yl]-[3-(piperidin-4-yloxy)-phenyl]-amine]
 |  | 1000 to 10000 nM | < 100 nM | COc1ccccc1-c1ccc2cnc(Nc3ccc(-c4cccnc4)cc3)nn12 [Example 1091, [7-(2-Methoxy-phenyl)-pyrrolo[2,1-f][1,2,4]triazin-2-yl]-(4-pyridin-3-yl-phenyl)-amine]
